Results published in the supplement of paper PMC8882468.

Assays:
Assay in all cases: CTG-3D luminescence at 96 h relative to day-0 seeding control (ratio to day 0); higher = more growth / less cytotoxicity; PDxO 3D drug screen, 96 h, CTG-3D normalised to day-0 seeding control.
HCI-017.E2 = system: HCI-017.E2 (organoid from an ER-positive breast cancer xenograft)
HCI-005.E2 = system: HCI-005.E2 (organoid from a breast cancer xenograft with a HER2-positive history)
HCI-024 = system: HCI-024 (organoid from a breast cancer xenograft)
HCI-001 = system: HCI-001 (organoid from a triple-negative breast cancer xenograft)
HCI-003.E2 = system: HCI-003.E2 (organoid from an ER-positive breast cancer xenograft)
HCI-012 = system: HCI-012 (organoid from a breast cancer xenograft)

CCc1c2c(nc3ccc(O)cc13)-c1cc3c(c(=O)n1C2)COC(=O)[C@]3(O)CC [SN-38]
CTG-3D luminescence at 96 h
Conditions	12.5 pM	0.00025 µM	0.005 µM	0.1 µM	1 µM	10 µM	100 µM	625 fM
HCI-003.E2	2.07	2.06	1.68	1.64	1.24	0.339	0.213	1.94
HCI-005.E2	1.65	1.65	1.41	1.38	1.17	0.21	0.199	1.65
HCI-017.E2	1.58	1.73	1.5	1.44	1.16	0.47	0.407	1.77

CTG-3D luminescence at 96 h
Conditions	12.5 pM	0.00025 µM	0.005 µM	0.1 µM	1 µM	10 µM	100 µM	625 fM
HCI-001, days in culture: 240	1.51	0.771	0.767	0.396	0.155	0.0446	0.0627	1.46
HCI-001, days in culture: 260	2.58	1	1.24	0.603	0.195	0.0569	0.027	1.29
HCI-001, days in culture: 269	1.53	1.63	1.32	0.477	0.161	0.0511	0.0406	1.73
HCI-001, days in culture: 327	1.72	1.61	1.83	0.602	0.127	0.0312	0.0351	2.1
HCI-001, days in culture: 346	1.26	1.2	0.977	0.483	0.105	0.0311	0.0287	1.11
HCI-001, days in culture: 364	1.37	0.978	1.19	0.283	0.0835	0.0303	0.0177	1.76
HCI-012, days in culture: 143	1.85	2.16	0.415	0.0623	0.0329	0.0255	0.0169	1.9
HCI-012, days in culture: 162	2.38	1.99	0.295	0.0642	0.0329	0.0269	0.0164	2.73
HCI-012, days in culture: 201	2.31	1.99	0.824	0.0348	0.0248	0.0127	0.014	1.61
HCI-017.E2, days in culture: 85	2.43	2.66	1.7	2.32	1.23	0.584	0.428	2.19
HCI-024, days in culture: 105	1.67	1.42	1.1	0.734	0.264	0.153	0.114	1.9
HCI-024, days in culture: 122	2.16	2.39	1.58	0.768	0.272	0.192	0.13	2.86
HCI-024, days in culture: 163	1.84	1.76	1.18	0.824	0.262	0.185	0.173	2.01

CS(=O)(=O)c1ccc(C(=O)Nc2ccc(Cl)c(-c3ccccn3)c2)c(Cl)c1 [vismodegib]
CTG-3D luminescence at 96 h
Conditions	12.5 pM	0.00025 µM	0.005 µM	0.1 µM	1 µM	10 µM	100 µM	625 fM
HCI-003.E2	1.92	2.03	1.93	2.17	2.08	1.96	0.299	1.94
HCI-005.E2	1.47	1.38	1.47	1.57	1.45	1.3	0.318	1.47
HCI-017.E2	1.53	1.93	2.01	1.8	1.65	1.67	0.824	1.88

CTG-3D luminescence at 96 h
Conditions	12.5 pM	0.00025 µM	0.005 µM	0.1 µM	1 µM	10 µM	100 µM	625 fM
HCI-001, days in culture: 240	1.85	1.26	0.998	1.03	1.5	1.19	0.836	2.27
HCI-001, days in culture: 260	2.49	1.08	2.27	1.74	1.57	1.91	0.909	1.99
HCI-001, days in culture: 269	1.57	1.89	1.55	1.36	1.13	1.83	0.861	1.51
HCI-001, days in culture: 327	2.09	1.61	2.29	1.87	1.93	1.2	1.19	1.94
HCI-001, days in culture: 346	1.82	1.38	1.23	1.34	1.47	1.65	1.35	1.34
HCI-001, days in culture: 364	1.66	1.26	1.67	1.34	1.47	1.71	1.1	1.64
HCI-012, days in culture: 143	2.03	2.38	2.4	2.49	2.42	2.55	0.427	1.88
HCI-012, days in culture: 162	2.64	2.72	2.08	2.88	2.4	2.69	0.492	3
HCI-012, days in culture: 201	2.82	2.26	1.72	1.56	2.33	1.8	0.943	1.59
HCI-017.E2, days in culture: 85	2.49	2.32	2.96	2.5	2.32	1.76	0.842	2.14
HCI-024, days in culture: 105	1.78	1.57	1.53	1.77	1.64	1.97	1.09	1.64
HCI-024, days in culture: 122	1.39	1.99	2.14	2.07	2.27	2.75	1.23	2.04
HCI-024, days in culture: 163	1.93	2.3	1.87	2.29	2.2	2.36	1.4	2.01

C/C=C1\NC(=O)[C@H]2CSSCC/C=C/[C@H](CC(=O)N[C@H](C(C)C)C(=O)N2)OC(=O)[C@H](C(C)C)NC1=O [romidepsin]
CTG-3D luminescence at 96 h
Conditions	12.5 pM	0.00025 µM	0.005 µM	0.1 µM	1 µM	10 µM	100 µM	625 fM
HCI-003.E2	1.2	0.624	0.21	0.0473	0.0243	0.0035	-0.00659	0.719
HCI-005.E2	1.07	0.734	0.155	0.0737	0.0546	0.00415	-0.00471	0.827
HCI-017.E2	1.34	1.36	0.657	0.298	0.151	0.033	-0.0104	1.17

CTG-3D luminescence at 96 h
Conditions	12.5 pM	0.00025 µM	0.005 µM	0.1 µM	1 µM	10 µM	100 µM	625 fM
HCI-001, days in culture: 240	1.85	1.11	0.504	0.308	0.442	0.0301	-0.0763	1.57
HCI-001, days in culture: 260	2.41	0.948	1.41	0.615	0.865	0.141	-0.0313	1.64
HCI-001, days in culture: 269	1.82	1.72	0.783	0.423	0.38	0.00899	-0.0103	1.64
HCI-001, days in culture: 327	1.6	1.01	0.868	0.329	0.501	-0.124	-0.199	1.75
HCI-001, days in culture: 346	1.68	1.28	0.579	0.303	0.317	-0.107	-0.155	1.21
HCI-001, days in culture: 364	1.68	1.04	0.67	0.274	0.349	0.0111	-0.0729	1.63
HCI-012, days in culture: 143	2.11	2.61	0.686	0.0407	0.0227	0.0103	-0.00702	1.66
HCI-012, days in culture: 162	2.25	2.64	0.53	0.0384	0.0172	0.00772	-0.00766	2.87
HCI-012, days in culture: 201	2.24	0.795	0.629	-0.145	-0.118	-0.159	-0.214	1.98
HCI-017.E2, days in culture: 85	2.46	2.08	1.87	0.329	0.2	0.0715	-0.00898	2.18
HCI-024, days in culture: 105	1.55	1.48	0.453	0.311	0.111	0.00592	-0.00576	1.92
HCI-024, days in culture: 122	1.84	2.34	0.619	0.277	0.107	0.00509	-0.00823	1.91
HCI-024, days in culture: 163	1.76	1.96	0.576	0.334	0.124	0.00767	-0.00793	1.96

Cc1cc(Nc2ncc(Cl)c(Nc3ccccc3S(=O)(=O)C(C)C)n2)c(OC(C)C)cc1C1CCNCC1 [ceritinib]
CTG-3D luminescence at 96 h
Conditions	12.5 pM	0.00025 µM	0.005 µM	0.1 µM	1 µM	10 µM	100 µM	625 fM
HCI-003.E2	2.16	2.04	1.82	2.06	2.05	0.388	0.0194	2.21
HCI-005.E2	1.54	1.76	1.79	1.7	1.44	0.347	0.0328	1.97
HCI-017.E2	1.94	2.16	2.23	2.22	1.988	0.0699	-0.00443	2.22

CTG-3D luminescence at 96 h
Conditions	12.5 pM	0.00025 µM	0.005 µM	0.1 µM	1 µM	10 µM	100 µM	625 fM
HCI-001, days in culture: 240	1.82	1.14	1.07	1.15	0.858	0.121	-0.00201	1.26
HCI-001, days in culture: 260	2.25	1.05	1.67	1.28	1.21	0.018	-0.00298	1.55
HCI-001, days in culture: 269	1.92	1.77	1.43	1.82	1.23	-0.0266	-0.0412	1.9
HCI-001, days in culture: 327	1.58	1.14	1.9	1.78	1.24	0.164	-0.00344	1.92
HCI-001, days in culture: 346	1.59	1.27	1.16	1.24	1.19	0.45	-0.00215	1.39
HCI-001, days in culture: 364	1.52	1.11	1.4	0.954	1.13	0.315	-0.00387	1.85
HCI-012, days in culture: 143	2.17	1.8	1.89	2.08	1.92	0.0093	-0.00596	2.32
HCI-012, days in culture: 162	2.32	2.04	1.68	2.9	2.19	0.0143	-0.00682	2.82
HCI-012, days in culture: 201	2.62	2.34	1.57	1.57	2.44	0.00702	-0.00682	1.54
HCI-017.E2, days in culture: 85	2.65	2.49	2.67	2.69	2.49	0.446	-0.00537	2.49
HCI-024, days in culture: 105	1.05	1.3	1.22	1.29	1.11	0.00435	-0.0037	1.39
HCI-024, days in culture: 122	1.49	2.05	1.23	1.88	1.16	0.00674	-0.00377	2.07
HCI-024, days in culture: 163	2.38	2.03	1.59	2.47	1.74	0.107	-0.00554	2.78
